In ChEMBL document CHEMBL1148980, “Scabrolides E-G, three new norditerpenoids from the soft coral Sinularia scabra” (2004):
≈ marks a conversion by molar mass, not a printed value. Calls of active or inactive are those of the source. The rule behind the calls is not given here.

Legend:
Type in all cases: functional
KB = assay: Cytotoxicity against human KB cells by MTT assay
HEPA 59T/VGH = assay: (§1) Cytotoxicity against human HEPA 59T/VGH cells by MTT assay
[1] = as §1; conditions: read-out: ED50 (the source's name)

| SMILES | Activity (KB) | Activity (HEPA 59T/VGH) | EC50 (KB; read-out: ED50 (the source's name)) [mg/L] | EC50 [1] [mg/L] |
| --- | --- | --- | --- | --- |
| C=C(C)[C@@H]1CC(=O)C[C@H](O)[C@@]2(O)[C@H]1C=C1C(=O)O[C@@H]3C[C@](C)(O)[C@H]2[C@H]13 | inactive | inactive | – | – |
| C=C(C)[C@H]1C/C=C2\C(=O)O[C@H](C[C@]3(C)CC(=O)[C@H](CC(=O)C1)O3)[C@H]2O [SCABROLIDE E] | – | – | 0.7 (≈ 2.01 µM) | 0.5 (≈ 1.44 µM) |
